Results on three compounds are retold here after ChEMBL document CHEMBL1201862, “PubChem BioAssay data set” (2004).

Activity calls are given as the source filed them.

Format in all cases: functional
One test deals with SUMO-activating enzyme (Homo sapiens, UniProt Q9UBT2). Kind of test: blockers of UBC9-mediated SUMO conjugation – biochemical, AlphaScreen, SUMOylation inhibitor project, confirmation (AID 2018).
Test [1] concerns the target T1, Replicative DNA helicase DnaB (Mycobacterium tuberculosis, UniProt P9WMR3).
T1 sequence (P9WMR3 whole entry): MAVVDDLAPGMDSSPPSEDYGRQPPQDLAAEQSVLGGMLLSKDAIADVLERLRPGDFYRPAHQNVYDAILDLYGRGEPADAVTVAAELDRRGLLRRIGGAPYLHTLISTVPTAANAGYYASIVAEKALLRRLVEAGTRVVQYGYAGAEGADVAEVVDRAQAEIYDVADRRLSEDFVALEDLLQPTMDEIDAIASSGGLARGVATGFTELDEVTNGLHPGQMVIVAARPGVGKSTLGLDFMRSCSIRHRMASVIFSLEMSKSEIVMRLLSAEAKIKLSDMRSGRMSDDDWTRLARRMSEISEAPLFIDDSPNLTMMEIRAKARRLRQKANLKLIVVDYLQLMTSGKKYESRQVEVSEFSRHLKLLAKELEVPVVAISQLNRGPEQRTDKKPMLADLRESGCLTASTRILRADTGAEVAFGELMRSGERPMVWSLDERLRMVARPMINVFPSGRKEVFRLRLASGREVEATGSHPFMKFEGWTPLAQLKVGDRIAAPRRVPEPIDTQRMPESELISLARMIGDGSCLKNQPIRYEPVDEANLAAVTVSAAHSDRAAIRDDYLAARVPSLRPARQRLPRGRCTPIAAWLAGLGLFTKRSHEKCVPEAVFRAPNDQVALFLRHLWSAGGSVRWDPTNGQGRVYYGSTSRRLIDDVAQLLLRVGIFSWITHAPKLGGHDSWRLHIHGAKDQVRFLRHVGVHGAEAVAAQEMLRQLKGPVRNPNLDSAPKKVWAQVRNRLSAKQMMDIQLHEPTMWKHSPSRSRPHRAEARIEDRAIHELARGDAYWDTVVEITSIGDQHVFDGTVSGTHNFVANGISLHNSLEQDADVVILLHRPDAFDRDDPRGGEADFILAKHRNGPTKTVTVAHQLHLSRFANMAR
Kind of test: DnaB intein splicing inhibitors, dose response, biochemical, cell-free fluorescence (AID 449749).

The target of the next test is T2, Hexokinase HKDC1 (Homo sapiens, UniProt Q2TB90).
T2 sequence (Q2TB90 whole entry): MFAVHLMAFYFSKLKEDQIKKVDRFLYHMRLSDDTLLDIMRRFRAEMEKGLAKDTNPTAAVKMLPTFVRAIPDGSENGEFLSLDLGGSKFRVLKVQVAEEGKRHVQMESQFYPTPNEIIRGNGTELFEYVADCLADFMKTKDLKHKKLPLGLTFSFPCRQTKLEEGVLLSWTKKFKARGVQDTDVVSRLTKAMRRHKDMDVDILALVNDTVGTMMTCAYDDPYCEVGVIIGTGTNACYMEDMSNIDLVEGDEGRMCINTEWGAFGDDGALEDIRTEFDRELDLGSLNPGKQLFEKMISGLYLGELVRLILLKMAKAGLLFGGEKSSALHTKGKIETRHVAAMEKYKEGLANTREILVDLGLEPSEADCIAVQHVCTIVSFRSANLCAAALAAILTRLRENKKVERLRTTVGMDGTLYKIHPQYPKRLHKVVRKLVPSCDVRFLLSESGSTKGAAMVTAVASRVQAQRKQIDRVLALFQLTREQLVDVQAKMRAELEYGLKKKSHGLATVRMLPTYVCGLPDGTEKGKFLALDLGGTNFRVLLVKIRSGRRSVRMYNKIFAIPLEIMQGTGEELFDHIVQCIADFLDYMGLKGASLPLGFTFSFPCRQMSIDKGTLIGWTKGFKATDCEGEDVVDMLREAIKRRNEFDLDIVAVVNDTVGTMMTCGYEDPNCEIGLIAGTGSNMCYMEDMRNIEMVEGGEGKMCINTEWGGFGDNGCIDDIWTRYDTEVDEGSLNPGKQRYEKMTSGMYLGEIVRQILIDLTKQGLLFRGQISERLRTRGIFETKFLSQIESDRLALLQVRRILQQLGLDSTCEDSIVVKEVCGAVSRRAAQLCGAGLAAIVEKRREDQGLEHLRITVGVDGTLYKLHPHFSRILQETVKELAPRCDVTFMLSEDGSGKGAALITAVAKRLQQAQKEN
As to the kind of experiment: analog inhibition of human HKDC1 activity – biochemical, set 2, SAR follow-up (AID 588355).

Test [2] concerns the target Protein kinase C zeta type (Homo sapiens, UniProt Q05513).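 Note: measured as one member of a broad kinase profiling panel.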
In test [3] the target is Tyrosine-protein kinase Lck (Homo sapiens, UniProt P06239).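 Note: lck was assayed as one member of a kinase panel.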
The target of a further test is LIM domain kinase 1 (Homo sapiens, UniProt P53667). Kind of test: Navigating the Kinome. Panel member name: LIMK1.
Test [4] has as its target Inhibitor of nuclear factor kappa-B kinase subunit alpha (Homo sapiens, UniProt O15111).
Test [5] has as its target Serine/threonine-protein kinase PLK1 (Homo sapiens, UniProt P53350).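 Note: PLK1 measured as one member of a kinome-wide profiling panel.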
The target of test [6] is Inhibitor of nuclear factor kappa-B kinase subunit beta (Homo sapiens, UniProt O14920).
Test [7] concerns the target Testis-specific serine/threonine-protein kinase 2 (Homo sapiens, UniProt Q96PF2).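 Note: part of the Navigating the Kinome panel, target entry STK22B.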
In test [8] the target is Serine/threonine-protein kinase 17A (Homo sapiens, UniProt Q9UEE5).
The target in test [9] is Calcium/calmodulin-dependent protein kinase type II subunit delta (Homo sapiens, UniProt Q13557).
Test [10] has as its target Ribosomal protein S6 kinase alpha-5 (Homo sapiens, UniProt O75582).
Test [11] concerns the target Mitogen-activated protein kinase kinase kinase kinase 2 (Homo sapiens, UniProt Q12851).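 Note: measured as one member of a kinome-wide kinase panel, with MAP4K2 as the panel entry.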
Test [12] concerns the target Serine/threonine-protein kinase Nek4 (Homo sapiens, UniProt P51957).
Test [13] deals with Tyrosine-protein kinase Fer (Homo sapiens, UniProt P16591).
The target in test [14] is Homeodomain-interacting protein kinase 4 (Homo sapiens, UniProt Q8NE63).
In test [15] the target is Serine/threonine-protein kinase DCLK1 (Homo sapiens, UniProt O15075).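 Note: affinity for DCLK1 (listed as DCAMKL1) measured as one member of a kinome-wide kinase profiling panel.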
Test [16] concerns the target Vascular endothelial growth factor receptor 1 (Homo sapiens, UniProt P17948).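 Note: measured within a kinome-wide profiling panel, FLT1 as the panel member.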
Test [17] addresses Serine/threonine-protein kinase BRSK1 (Homo sapiens, UniProt Q8TDC3).

Sequence of LIM domain kinase 1 (P53667 whole entry, the tested form may be a part): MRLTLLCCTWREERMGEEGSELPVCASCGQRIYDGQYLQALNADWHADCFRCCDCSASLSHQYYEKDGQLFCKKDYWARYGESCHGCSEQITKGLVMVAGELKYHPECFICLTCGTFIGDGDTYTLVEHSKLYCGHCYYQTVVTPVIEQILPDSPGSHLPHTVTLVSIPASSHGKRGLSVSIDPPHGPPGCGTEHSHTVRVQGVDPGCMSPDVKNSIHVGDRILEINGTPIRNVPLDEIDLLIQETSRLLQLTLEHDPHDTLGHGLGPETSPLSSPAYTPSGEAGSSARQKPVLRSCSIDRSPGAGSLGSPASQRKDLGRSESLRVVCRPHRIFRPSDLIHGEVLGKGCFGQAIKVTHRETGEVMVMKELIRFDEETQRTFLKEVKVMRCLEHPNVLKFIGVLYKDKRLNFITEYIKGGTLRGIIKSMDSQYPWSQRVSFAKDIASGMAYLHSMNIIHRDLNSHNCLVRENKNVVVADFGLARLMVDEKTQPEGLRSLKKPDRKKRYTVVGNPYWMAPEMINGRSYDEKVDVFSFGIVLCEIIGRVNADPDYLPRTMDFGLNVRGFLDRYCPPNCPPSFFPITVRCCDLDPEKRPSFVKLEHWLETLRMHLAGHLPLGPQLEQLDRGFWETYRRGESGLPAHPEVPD
Sequence of Homeodomain-interacting protein kinase 4 (Q8NE63 whole entry): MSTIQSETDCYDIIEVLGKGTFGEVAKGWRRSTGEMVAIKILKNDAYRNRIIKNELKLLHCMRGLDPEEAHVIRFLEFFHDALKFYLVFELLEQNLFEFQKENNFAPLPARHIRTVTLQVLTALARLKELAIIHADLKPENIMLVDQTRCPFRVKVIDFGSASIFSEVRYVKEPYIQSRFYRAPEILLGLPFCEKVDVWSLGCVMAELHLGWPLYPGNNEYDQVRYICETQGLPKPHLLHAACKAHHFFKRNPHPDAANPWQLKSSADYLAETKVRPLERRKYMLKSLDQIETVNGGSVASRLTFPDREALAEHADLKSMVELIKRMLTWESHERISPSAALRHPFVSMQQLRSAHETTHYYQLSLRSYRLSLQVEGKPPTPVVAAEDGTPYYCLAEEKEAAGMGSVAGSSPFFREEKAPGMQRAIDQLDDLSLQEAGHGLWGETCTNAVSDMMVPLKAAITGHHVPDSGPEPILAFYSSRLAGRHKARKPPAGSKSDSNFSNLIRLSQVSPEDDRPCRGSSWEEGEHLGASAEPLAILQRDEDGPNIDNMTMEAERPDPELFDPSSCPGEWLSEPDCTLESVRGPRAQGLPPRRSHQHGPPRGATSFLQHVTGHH
Sequence of Inhibitor of nuclear factor kappa-B kinase subunit alpha (O15111 whole entry): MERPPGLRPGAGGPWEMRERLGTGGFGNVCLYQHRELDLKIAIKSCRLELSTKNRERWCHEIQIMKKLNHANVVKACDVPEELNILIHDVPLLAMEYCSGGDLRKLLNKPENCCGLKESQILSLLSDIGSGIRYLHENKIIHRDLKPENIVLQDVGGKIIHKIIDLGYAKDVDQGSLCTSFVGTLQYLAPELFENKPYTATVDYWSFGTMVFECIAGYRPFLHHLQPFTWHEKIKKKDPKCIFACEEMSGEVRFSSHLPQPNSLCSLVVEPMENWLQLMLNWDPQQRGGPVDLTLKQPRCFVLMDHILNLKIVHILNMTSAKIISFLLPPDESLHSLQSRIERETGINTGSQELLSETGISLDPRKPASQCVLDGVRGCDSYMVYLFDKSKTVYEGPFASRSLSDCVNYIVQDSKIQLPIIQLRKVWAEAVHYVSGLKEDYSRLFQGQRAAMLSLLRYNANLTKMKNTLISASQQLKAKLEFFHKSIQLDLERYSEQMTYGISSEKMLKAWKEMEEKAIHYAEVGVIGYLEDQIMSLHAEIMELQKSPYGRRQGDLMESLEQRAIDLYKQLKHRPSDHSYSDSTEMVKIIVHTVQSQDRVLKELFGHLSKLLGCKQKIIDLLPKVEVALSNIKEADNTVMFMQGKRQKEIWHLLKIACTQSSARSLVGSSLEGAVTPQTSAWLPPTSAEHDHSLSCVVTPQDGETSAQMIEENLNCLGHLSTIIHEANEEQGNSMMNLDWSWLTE
Sequence of Protein kinase C zeta type (Q05513 whole entry): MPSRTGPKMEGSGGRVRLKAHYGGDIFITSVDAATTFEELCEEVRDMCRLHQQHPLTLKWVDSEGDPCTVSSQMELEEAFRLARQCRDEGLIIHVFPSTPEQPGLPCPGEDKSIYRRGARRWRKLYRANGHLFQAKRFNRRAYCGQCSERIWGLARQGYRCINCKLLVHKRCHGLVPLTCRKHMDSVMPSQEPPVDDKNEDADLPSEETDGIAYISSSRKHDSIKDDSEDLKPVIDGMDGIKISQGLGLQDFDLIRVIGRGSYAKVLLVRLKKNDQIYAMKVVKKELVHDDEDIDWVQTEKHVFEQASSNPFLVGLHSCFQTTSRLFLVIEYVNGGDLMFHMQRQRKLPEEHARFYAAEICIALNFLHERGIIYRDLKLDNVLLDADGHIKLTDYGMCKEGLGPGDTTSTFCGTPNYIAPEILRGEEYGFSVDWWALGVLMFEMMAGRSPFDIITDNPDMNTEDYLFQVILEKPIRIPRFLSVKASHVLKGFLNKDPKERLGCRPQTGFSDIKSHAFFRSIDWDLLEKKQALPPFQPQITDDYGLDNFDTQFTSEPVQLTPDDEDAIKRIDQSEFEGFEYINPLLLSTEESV
Sequence of Serine/threonine-protein kinase Nek4 (P51957 whole entry): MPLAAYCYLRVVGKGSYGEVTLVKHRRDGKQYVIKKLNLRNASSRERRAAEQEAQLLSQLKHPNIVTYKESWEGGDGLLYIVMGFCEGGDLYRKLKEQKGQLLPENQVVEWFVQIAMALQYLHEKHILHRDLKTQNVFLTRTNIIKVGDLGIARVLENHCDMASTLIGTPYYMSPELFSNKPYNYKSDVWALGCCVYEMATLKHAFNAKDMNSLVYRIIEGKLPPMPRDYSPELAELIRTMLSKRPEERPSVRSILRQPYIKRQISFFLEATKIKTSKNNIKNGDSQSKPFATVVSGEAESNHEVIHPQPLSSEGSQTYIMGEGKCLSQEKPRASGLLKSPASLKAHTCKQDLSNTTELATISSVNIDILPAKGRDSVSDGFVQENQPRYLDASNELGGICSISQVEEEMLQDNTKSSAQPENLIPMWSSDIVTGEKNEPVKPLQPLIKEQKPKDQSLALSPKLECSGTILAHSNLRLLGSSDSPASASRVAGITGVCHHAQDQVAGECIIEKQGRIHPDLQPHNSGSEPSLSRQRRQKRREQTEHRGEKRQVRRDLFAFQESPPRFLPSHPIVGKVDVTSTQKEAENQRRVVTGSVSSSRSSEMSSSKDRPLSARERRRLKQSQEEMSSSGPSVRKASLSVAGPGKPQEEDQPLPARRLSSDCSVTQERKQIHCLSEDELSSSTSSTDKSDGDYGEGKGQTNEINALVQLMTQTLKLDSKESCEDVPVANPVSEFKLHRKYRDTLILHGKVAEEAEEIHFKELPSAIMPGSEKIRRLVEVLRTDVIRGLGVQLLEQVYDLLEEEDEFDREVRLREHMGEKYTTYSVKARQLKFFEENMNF
Sequence of Serine/threonine-protein kinase BRSK1 (Q8TDC3 whole entry): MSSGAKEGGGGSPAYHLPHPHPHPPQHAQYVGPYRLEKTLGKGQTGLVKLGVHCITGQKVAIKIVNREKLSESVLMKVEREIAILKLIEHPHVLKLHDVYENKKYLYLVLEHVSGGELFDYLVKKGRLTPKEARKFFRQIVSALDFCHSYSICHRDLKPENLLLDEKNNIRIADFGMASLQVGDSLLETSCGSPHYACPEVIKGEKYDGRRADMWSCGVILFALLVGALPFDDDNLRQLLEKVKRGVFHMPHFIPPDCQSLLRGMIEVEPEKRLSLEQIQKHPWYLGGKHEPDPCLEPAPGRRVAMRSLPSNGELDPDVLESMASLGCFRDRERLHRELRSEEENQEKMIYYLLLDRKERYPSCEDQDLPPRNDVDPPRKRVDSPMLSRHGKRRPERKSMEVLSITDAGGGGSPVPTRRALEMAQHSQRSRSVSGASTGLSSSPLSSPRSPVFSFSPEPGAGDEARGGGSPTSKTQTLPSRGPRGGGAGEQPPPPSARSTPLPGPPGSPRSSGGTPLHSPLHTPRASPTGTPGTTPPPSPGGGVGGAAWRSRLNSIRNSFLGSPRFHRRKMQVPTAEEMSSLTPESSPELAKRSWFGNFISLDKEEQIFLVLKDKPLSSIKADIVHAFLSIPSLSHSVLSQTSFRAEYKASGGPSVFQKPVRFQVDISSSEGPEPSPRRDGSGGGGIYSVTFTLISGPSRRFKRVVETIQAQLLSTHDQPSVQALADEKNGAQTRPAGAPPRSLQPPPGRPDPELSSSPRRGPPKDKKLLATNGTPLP
Sequence of Tyrosine-protein kinase Lck (P06239 whole entry, the tested form may be a part): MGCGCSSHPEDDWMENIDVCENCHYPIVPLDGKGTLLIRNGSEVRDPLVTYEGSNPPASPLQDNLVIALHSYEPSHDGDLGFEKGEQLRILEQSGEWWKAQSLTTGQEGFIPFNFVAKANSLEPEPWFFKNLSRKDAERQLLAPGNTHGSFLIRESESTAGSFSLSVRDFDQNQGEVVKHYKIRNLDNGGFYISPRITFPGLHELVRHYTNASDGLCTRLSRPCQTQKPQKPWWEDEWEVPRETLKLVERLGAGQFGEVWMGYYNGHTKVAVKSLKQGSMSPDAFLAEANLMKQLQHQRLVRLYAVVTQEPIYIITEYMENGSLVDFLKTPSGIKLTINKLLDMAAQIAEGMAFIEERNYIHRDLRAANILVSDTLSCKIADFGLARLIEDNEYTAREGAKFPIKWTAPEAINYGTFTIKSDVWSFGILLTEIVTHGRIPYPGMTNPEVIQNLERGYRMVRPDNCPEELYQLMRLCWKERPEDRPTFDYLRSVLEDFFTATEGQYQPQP

On to `CC(=O)NC1C(=O)N(CCN2CCOCC2)c2ccc(Cl)cc21` (stereo not given), for which the IC50 (usually the concentration at which inhibition is half-maximal) was 5.25 µM (active) on SUMO-activating enzyme and 11.5 µM (active) on Hexokinase HKDC1. The AC50 (in general, the midpoint of the concentration-response curve, whichever way the signal moves) in test [1] is 16.6 µM (active).
With `Cc1c(C=O)c(O)n2c(nc3ccccc32)c1C#N`, the Ki (as a rule, the dissociation constant of the complex between target and ligand, obtained from inhibition or displacement) was > 7.94 µM (inactive) in test [2]; > 2.51 µM (inactive) in [3]; 3.16 µM (active) on LIM domain kinase 1; > 3.98 µM (inactive) in [4]; 1.26 µM (active) in test [5]; > 3.16 µM (inactive) in test [6].
Consider `Cc1n[nH]c2cnc(-c3cncc(OCC(N)Cc4cccc(C(F)(F)F)c4)c3)cc12` (stereo not given), for which the Ki is 0.0794 µM (active) in test [7]; 0.501 µM (active) in [8]; 0.00501 µM (active) in test [9]; 0.0794 µM (active) in test [10]; 0.0631 µM (active) in [11]; 0.316 µM (active) in test [12]. Further, the Ki in test [13] is > 1.58 µM (inactive); in test [14], 0.0251 µM (active); in [15], 0.794 µM (active); in test [16] it was > 0.398 µM (inactive); in test [17], 2 µM (active).
